The values below come from article PMC12040169 (PLOS Biology, 2025).

The nature of this data set: in vitro. Particulars: human, hela cells, % viability.

The term viability denotes a read-out of living cells in per cent, often relative to untreated cells.

Turning to `Cc1ncccc1COC(=O)Nc1cccnc1` [CBK138237], the viability at 28.5 h, 10 µM came out at 94.3%.
To `NC(=O)CCN1CCC(Cc2ccccc2)CC1` [CBK138317] belongs 117%; to `O=c1[nH]c2ccccc2n1CCCN1CCC(Cc2ccccc2)CC1` [CBK138318], 104%.
Next, `COc1cc2c(cc1OC)CN(CC1CCCCC1)CC2` [CBK138321]: 101%; `COc1cc2c(cc1OC)CN(CCO)CC2` [CBK138322]: 108%.
To `c1ccc(CCN2CCN(Cc3ncc[nH]3)CC2)cc1` [CBK138328] belongs 120%.
In the case of `c1ccc2c(c1)CCCN2Cc1nc2ccccc2[nH]1` [CBK138329], the viability at 28.5 h, 10 µM was determined as 107%.
To `c1ccc2c(c1)CCCN2CCc1c[nH]c2ccccc12` [CBK138330] belongs 97.3%; to `O=c1cc(CN2CCCc3ccccc32)[nH]c(=O)[nH]1` [CBK138331], 95.1%; to `c1ccc2c(c1)CCCN2Cc1ncc[nH]1` [CBK138332], 89.2%.
Next, `COc1ccc(Cl)cc1N1CCN(CC2CCCCC2)CC1` [CBK138336]: 77.8%.
Next, `c1ccc(CCN2CCN(CC3COc4ccccc4O3)CC2)cc1` (centres unmarked) [CBK138342]: 86%; `NC(=O)CN1CCCc2ccccc21` [CBK138343]: 90%; `COc1ccc(CCC(=O)Nc2cccc(OCCC3CCNCC3)c2)cc1OC` [CBK138350]: 95.6%.
Turning to `COc1cc(CC(=O)Nc2cccc(-c3ccc(OC4CCNCC4)cc3)n2)cc(OC)c1OC` [CBK138351], the viability at 28.5 h, 10 µM was determined as 83.4%.
Next, `CC(C)[C@@]1(C)SC(N[C@H]2C[C@H]3C[C@@H]2C[C@@H]3O)=NC1=O` [CBK138400]: 102%; `C[C@H](NC1=NC(=O)[C@@](C)(C(C)(C)O)S1)c1ccc(F)cc1` [CBK138436]: 98.1%.
Next, `CC(=O)Nc1cccc(-c2cnc(NCc3ccc4c(c3)OCO4)c(C(=O)NCC3COc4ccccc4O3)c2)c1` (centres unmarked) [CBK138473T]: 116%.
Next, `Nc1ccc(-c2cnc(NCc3ccc4c(c3)OCO4)c(C(=O)Nc3ccc4c(c3)OCCO4)c2)cc1` [CBK138480T]: 106%.
On to `Nc1ncc(-c2ccc(C(=O)N3CCOCC3)cc2)nc1-c1ccc(Cl)s1` [CBK138510], for which the viability at 28.5 h, 10 µM came out at 93.6%.
As for `CC(C)CCC(=O)Nc1ccc(N2CCN(C(=O)c3ccccc3C(F)(F)F)CC2)nn1` [CBK138629], the viability at 28.5 h, 10 µM turned out to be 100%.
To `Cn1c(=O)[nH]c(=O)c2c1nc(N/N=C/c1cc(Br)ccc1O)n2CCO` [CBK139415] belongs 97.8%.
Next, `CC(C)OCC(O)Cn1c(N/N=C/c2ccccc2O)nc2c1c(=O)[nH]c(=O)n2C` (centres unmarked) [CBK139853]: 101%.
To `Cn1c(=O)c2c(nc(NCc3ccccc3)n2C)n(C)c1=O` [CBK139872] belongs 95.9%; to `CC(C)n1c(NCc2ccccc2)nc2c1c(=O)n(C)c(=O)n2C` [CBK140094], 78.2%; to `Fc1ccc(C(c2nnnn2C2CCCCC2)N2CCCCC2)cc1` (centres unmarked) [CBK141670], 94.9%.
Regarding `CN1CCN(C(c2cccs2)c2nnnn2C(C)(C)C)CC1` (centres unmarked) [CBK141702], the viability at 28.5 h, 10 µM was determined as 91.9%.
For `Cc1ccc(C)c(-n2nnnc2SCC(=O)c2ccc(Cl)cc2Cl)c1` [CBK141941], the viability at 28.5 h, 10 µM stood at 98.1%.
Turning to `CCOc1ccc(-n2nnnc2SCC(=O)c2ccc(Cl)c(Cl)c2)cc1` [CBK141942], the viability at 28.5 h, 10 µM amounted to 88.7%.
Next, `O=C(Nc1ccccc1C(F)(F)F)NC1CC2CCCC(C1)N2C1CC1` (centres unmarked) [CBK143578]: 103%.
Consider `O=C(NCc1ccccc1)c1ccc2nc[nH]c2c1` [CBK143739], for which the viability at 28.5 h, 10 µM was 91.9%.
Next, `CC(C)C(=O)N1CC2(CCN(CC3COc4ccccc4O3)CC2)c2ccccc21` (centres unmarked) [CBK143946]: 98.2%.
